Laboratory results taken from patent US20220396565A1 (Hoffmann-La Roche Inc., priority 2020, published 2022).
Structures can show the parent of a compound that is named as a salt.

Tested on: Acinetobacter baumannii ATCC17961
Assay: Antimicrobial susceptibility testing: 90% growth inhibitory concentration (IC90) determination, Iso-Sensitest broth
Assay type: cell-based
Details: Acinetobacter baumannii, ATCC17961, 90% growth inhibitory concentration, Acinetobacter baumannii ATCC17961, Iso-Sensitest broth; read-out: ATCC 17961 IC90
Method in brief: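 Twofold serial dilutions (e.g. 10 to 0.02 μM final) were tested in Iso-Sensitest broth against ~5×10^(5) CFU/ml at 35±2 °C. OD600 was read every 20 min over 16 h. IC90 was derived from growth inhibition during the logarithmic phase.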

Row | SMILES | IC90
1 | Cc1cc(NC(=O)c2ncc(-c3ccc(OCC#N)c(F)c3F)n2C)ccc1C(=O)N1CCC(C(=O)N2CCO[C@H](CN)C2)CC1 [Example 83, (R)-N-(4-(4-(2-(aminomethyl)morpholine-4-carbonyl)piperidine-1-carbonyl)-3-methylphenyl)-5-(4-(cyanomethoxy)-2,3-difluorophenyl)-1-methyl-1H-imidazole-2-carboxamide 2,2,2-trifluoroacetate] | 170 nM
2 | Cc1cc(NC(=O)c2ncc(-c3ccc(OCC#N)c(F)c3F)n2C)ccc1C(=O)N1CCC(C(=O)N2CCO[C@@H](CN)C2)CC1 [Example 87, (S)-N-(4-(4-(2-(aminomethyl)morpholine-4-carbonyl)piperidine-1-carbonyl)-3-methylphenyl)-5-(4-(cyanomethoxy)-2,3-difluorophenyl)-1-methyl-1H-imidazole-2-carboxamide 2,2,2-trifluoroacetate] | 120 nM
3 | Cn1c(-c2ccc(OC(F)F)c(F)c2F)cnc1C(=O)Nc1ccc(C(=O)N2CCC(C(=O)NC3CCNCC3)CC2)c(Cl)c1 [Example 94, 1-(2-chloro-4-(5-(4-(difluoromethoxy)-2,3-difluorophenyl)-1-methyl-1H-imidazole-2-carboxamido)benzoyl)-N-(piperidin-4-yl)piperidine-4-carboxamide formate] | 40 nM
4 | Cn1c(-c2ccc(OC(F)F)c(F)c2F)cnc1C(=O)Nc1ccc(C(=O)N2CCC(C(=O)N[C@@H]3CNC[C@H]3O)CC2)c(Cl)c1 [Example 96, 1-(2-chloro-4-(5-(4-(difluoromethoxy)-2,3-difluorophenyl)-1-methyl-1H-imidazole-2-carboxamido)benzoyl)-N-((3R,4R)-4-hydroxypyrrolidin-3-yl)piperidine-4-carboxamide formate] | 40 nM
5 | CCc1cc(NC(=O)c2ncc(-c3ccc(OC)c(F)c3F)n2C)ccc1C(=O)N1CCC(C(=O)NCCOCCN(C)C)CC1 [Example 99, 1-[4-[[5-(2,3-difluoro-4-methoxy-phenyl)-1-methyl-imidazole-2-carbonyl]amino]-2-ethyl-benzoyl]-N-[2-[2-(dimethylamino)ethoxy]ethyl] piperidine-4-carboxamid] | 480 nM
6 | CCc1cc(NC(=O)c2ncc(-c3ccc(OC)c(F)c3F)n2C)ccc1C(=O)N1CCC(C(=O)NCCN)CC1 [Example 100, N-(2-aminoethyl)-1-[4-[[5-(2,3-difluoro-4-methoxy-phenyl)-1-methyl-imidazole-2-carbonyl]amino]-2-ethyl-benzoyl]piperidine-4-carboxamide] | 340 nM

Continued, values first:

Row | IC90 | SMILES
7 | 50 nM | COc1ccc(-c2cnc(C(=O)Nc3ccc(C(=O)N4CCC(C(=O)N[C@H]5CNC[C@@H]5O)CC4)c(Cl)c3)n2C)c(F)c1F [Example 72, 1-[2-chloro-4-[[5-(2,3-difluoro-4-methoxy-phenyl)-1-methyl-imidazole-2-carbonyl]amino]benzoyl]-N-[(3S,4S)-4-hydroxypyrrolidin-3-yl]piperidine-4-carboxamide formate]
8 | 150 nM | Cn1c(-c2ccc(OCC#N)c(F)c2F)cnc1C(=O)Nc1ccc(C(=O)N2CCC(C(=O)N3CC4(CNC4)C3)CC2)c(Cl)c1 [Example 85, N-(4-(4-(2,6-diazaspiro[3.3]heptane-2-carbonyl)piperidine-1-carbonyl)-3-chlorophenyl)-5-(4-(cyanomethoxy)-2,3-difluorophenyl)-1-methyl-1H-imidazole-2-carboxamide 2,2,2-trifluoroacetate]
9 | 50 nM | Cn1c(-c2ccc(OCF)c(F)c2F)cnc1C(=O)Nc1ccc(C(=O)N2CCC(C(=O)NC3CCNCC3)CC2)c(Cl)c1 [Example 89, 1-(2-chloro-4-(5-(2,3-difluoro-4-(fluoromethoxy)phenyl)-1-methyl-1H-imidazole-2-carboxamido)benzoyl)-N-(piperidin-4-yl)piperidine-4-carboxamide 2,2,2-trifluoroacetate]
10 | 40 nM | Cn1c(-c2ccc(OCF)c(F)c2F)cnc1C(=O)Nc1ccc(C(=O)N2CCC(C(=O)N[C@@H]3CCNC3)CC2)c(Cl)c1 [Example 90, (R)-1-(2-chloro-4-(5-(2,3-difluoro-4-(fluoromethoxy)phenyl)-1-methyl-1H-imidazole-2-carboxamido)benzoyl)-N-(pyrrolidin-3-yl)piperidine-4-carboxamide 2,2,2-trifluoroacetate]
11 | 40 nM | Cn1c(-c2ccc(OC(F)F)c(F)c2F)cnc1C(=O)Nc1ccc(C(=O)N2CCC(C(=O)N[C@@H]3CCNC3)CC2)c(Cl)c1 [Example 91, (R)-1-(2-chloro-4-(5-(4-(difluoromethoxy)-2,3-difluorophenyl)-1-methyl-1H-imidazole-2-carboxamido)benzoyl)-N-(pyrrolidin-3-yl)piperidine-4-carboxamide formate]
12 | 50 nM | Cn1c(-c2ccc(OC(F)F)c(F)c2F)cnc1C(=O)Nc1ccc(C(=O)N2CCC(C(=O)N[C@H]3CCNC3)CC2)c(Cl)c1 [Example 95, (S)-1-(2-chloro-4-(5-(4-(difluoromethoxy)-2,3-difluorophenyl)-1-methyl-1H-imidazole-2-carboxamido)benzoyl)-N-(pyrrolidin-3-yl)piperidine-4-carboxamide formate]
13 | 260 nM | CCc1cc(NC(=O)c2ncc(-c3ccc(OC)c(F)c3F)n2C)ccc1C(=O)N1CCC(C(=O)N2CCN(CCCN(C)C)CC2)CC1 [Example 97, 5-(2,3-difluoro-4-methoxy-phenyl)-N-[4-[4-[4-[3-(dimethylamino)propyl]piperazine-1-carbonyl]piperidine-1-carbonyl]-3-ethyl-phenyl]-1-methyl-imidazole-2-carboxamide]
14 | 50 nM | COc1ccc(-c2cnc(C(=O)Nc3ccc(C(=O)N4CCC(NC(=O)CCN(C)C)CC4)c(Cl)c3)n2C)c(F)c1F [Example 101, N-[3-chloro-4-[4-[3-(dimethylamino)propanoylamino]piperidine-1-carbonyl]phenyl]-5-(2,3-difluoro-4-methoxy-phenyl)-1-methyl-imidazole-2-carboxamide formate]
15 | 90 nM | COc1ccc(-c2cnc(C(=O)Nc3ccc(C(=O)N4CCC(NC(=O)[C@@H]5C[C@@H](O)CN5)CC4)c(Cl)c3)n2C)c(F)c1F [Example 102, N-[3-chloro-4-[4-[[(2S,4R)-4-hydroxypyrrolidine-2-carbonyl]amino]piperidine-1-carbonyl]phenyl]-5-(2,3-difluoro-4-methoxy-phenyl)-1-methyl-imidazole-2-carboxamide]
16 | 60 nM | COc1ccc(-c2cnc(C(=O)Nc3ccc(C(=O)N4CCC(NC(=O)CCN)CC4)c(Cl)c3)n2C)c(F)c1F [Example 103, N-[4-[4-(3-aminopropanoylamino)piperidine-1-carbonyl]-3-chloro-phenyl]-5-(2,3-difluoro-4-methoxy-phenyl)-1-methyl-imidazole-2-carboxamide formate]
17 | 40 nM | COc1ccc(-c2cnc(C(=O)Nc3ccc(C(=O)N4CCN(C(=O)[C@H]5CC[C@@H](N)C5)CC4)c(Cl)c3)n2C)c(F)c1F [Example 108, N-[4-[4-[(1S,3R)-3-aminocyclopentane-carbonyl]piperazine-1-carbonyl]-3-chloro-phenyl]-5-(2,3-difluoro-4-methoxy-phenyl)-1-methyl-imidazole-2-carboxamide; formate]
18 | 150 nM | COc1ccc(-c2cnc(C(=O)Nc3ccc(C(=O)N4CCC(NC(=O)[C@@H]5CCNC5)C4)c(Cl)c3)n2C)c(F)c1F (stereo partly drawn) [Example 109, N-[3-chloro-4-[3-[[(3R)-pyrrolidine-3-carbonyl]amino]pyrrolidine-1-carbonyl]phenyl]-5-(2,3-difluoro-4-methoxy-phenyl)-1-methyl-imidazole-2-carboxamide formate]

Same assay, conditions: Acinetobacter baumannii, ATCC17961, read-out: ATCC 17961 IC90

Row | SMILES | IC90
19 | CNCCNC(=O)C1CCN(C(=O)c2ccc(NC(=O)c3ncc(-c4ccc(OCC#N)c(F)c4F)n3C)cc2Cl)CC1 [Example 82, 1-(2-chloro-4-(5-(4-(cyanomethoxy)-2,3-difluorophenyl)-1-methyl-1H-imidazole-2-carboxamido)benzoyl)-N-(2-(methylamino)ethyl) piperidine-4-carboxamide formate] | 70 nM
20 | Cn1c(-c2ccc(OCC#N)c(F)c2F)cnc1C(=O)Nc1ccc(C(=O)N2CCC(C(=O)NCC(O)CN)CC2)c(Cl)c1 (stereo not drawn) [Example 84, N-(3-amino-2-hydroxypropyl)-1-(2-chloro-4-(5-(4-(cyanomethoxy)-2,3-difluorophenyl)-1-methyl-1H-imidazole-2-carboxamido)benzoyl) piperidine-4-carboxamide 2,2,2-trifluoroacetate] | 90 nM
21 | Cn1c(-c2ccc(OCC#N)c(F)c2F)cnc1C(=O)Nc1ccc(C(=O)N2CCC(C(=O)N3CCN[C@H](CO)C3)CC2)c(Cl)c1 [Example 86, (S)-N-(3-ehloro-4-(4-(3-(hydroxymethyl)piperazine-1-carbonyl)piperidine-1-carbonyl)phenyl)-5-(4-(cyanomethoxy)-2,3-difluorophenyl)-1-methyl-1H-imidazole-2-carboxamide 2,2,2-trifluoroacetate] | 100 nM
22 | Cn1c(-c2ccc(OCF)c(F)c2F)cnc1C(=O)Nc1ccc(C(=O)N2CCC(C(=O)NCCN)CC2)c(Cl)c1 [Example 88, N-(2-aminoethyl)-1-(2-chloro-4-(5-(2,3-difluoro-4-(fluoromethoxy)phenyl)-1-methyl-1H-imidazole-2-carboxamido)benzoyl) piperidine-4-carboxamide 2,2,2-trifluoroacetate] | 50 nM
23 | Cn1c(-c2ccc(OC(F)F)c(F)c2F)cnc1C(=O)Nc1ccc(C(=O)N2CCC(C(=O)NCCN)CC2)c(Cl)c1 [Example 92, N-(2-aminoethyl)-1-(2-chloro-4-(5-(4-(difluoromethoxy)-2,3-difluorophenyl)-1-methyl-1H-imidazole-2-carboxamido)benzoyl) piperidine-4-carboxamide formate] | 60 nM
24 | Cn1c(-c2ccc(OC(F)F)c(F)c2F)cnc1C(=O)Nc1ccc(C(=O)N2CCC(C(=O)N[C@H]3CNC[C@@H]3O)CC2)c(Cl)c1 [Example 93, 1-(2-chloro-4-(5-(4-(difluoromethoxy)-2,3-difluorophenyl)-1-methyl-1H-imidazole-2-carboxamido)benzoyl)-N-((3S,4S)-4-hydroxypyrrolidin-3-yl)piperidine-4-carboxamide formate] | 40 nM
